Experimental data from PMC4321377, “Multiple signals modulate the activity of the complex sensor kinase TodS” (Microbial Biotechnology, 2014).

Molecular target: T1, TodS (Pseudomonas putida, UniProt E0X9C7)
T1 construct: full-length TodS, N-terminal His tag
Assay: autophosphorylation assay with [γ-32P]ATP of purified TodS; ITC showed an exothermic chemical reaction
Type: biochemical

T1 sequence (E0X9C7 whole entry): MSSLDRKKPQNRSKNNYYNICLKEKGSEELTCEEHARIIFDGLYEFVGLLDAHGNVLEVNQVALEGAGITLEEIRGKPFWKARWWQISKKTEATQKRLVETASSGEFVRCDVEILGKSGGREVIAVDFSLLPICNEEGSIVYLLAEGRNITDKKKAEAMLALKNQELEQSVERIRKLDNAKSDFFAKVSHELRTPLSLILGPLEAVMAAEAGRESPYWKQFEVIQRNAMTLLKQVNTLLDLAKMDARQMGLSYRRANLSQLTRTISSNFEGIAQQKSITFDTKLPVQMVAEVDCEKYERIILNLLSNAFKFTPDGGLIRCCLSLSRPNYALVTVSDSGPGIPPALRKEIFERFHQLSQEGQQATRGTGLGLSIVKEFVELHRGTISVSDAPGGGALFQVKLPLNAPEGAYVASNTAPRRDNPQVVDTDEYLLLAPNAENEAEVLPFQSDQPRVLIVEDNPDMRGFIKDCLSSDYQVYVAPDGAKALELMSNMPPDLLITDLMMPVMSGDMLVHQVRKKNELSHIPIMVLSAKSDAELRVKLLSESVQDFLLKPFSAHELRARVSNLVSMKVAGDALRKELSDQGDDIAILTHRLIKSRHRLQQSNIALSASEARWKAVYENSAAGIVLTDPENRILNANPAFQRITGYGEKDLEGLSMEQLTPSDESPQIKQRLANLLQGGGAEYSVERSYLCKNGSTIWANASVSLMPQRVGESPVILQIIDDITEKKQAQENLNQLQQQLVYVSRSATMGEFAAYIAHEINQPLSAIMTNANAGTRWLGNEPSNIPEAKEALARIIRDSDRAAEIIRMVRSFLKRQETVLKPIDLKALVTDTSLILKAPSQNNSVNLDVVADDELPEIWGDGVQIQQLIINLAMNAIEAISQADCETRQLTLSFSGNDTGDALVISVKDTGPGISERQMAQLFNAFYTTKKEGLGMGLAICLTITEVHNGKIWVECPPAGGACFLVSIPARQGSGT

CC1=CC(=O)c2ccccc2C1=O [menadione, 2-methyl-l,4-naphthoquinone]
EC50: 170 ± 25 µM
